Data from US6187572A, “Method of inactivation of viral and bacterial blood contaminants” (Baxter International Inc., priority 1993, dated 2001).
Structures can show the parent of a compound that is named as a salt. Where two headings read alike, the source gives them in different places. Values belong to the compound of their own block, whether it stands above or below them.

How the values were obtained:
.phi.6 phage [1] = test: Viral inactivation in red blood cells (UVA, full units); type: cell-based; details: Erythrocyte, light or radiation study
Description: (§1) Units of packed red cells were transferred to Stericon red cell freezing bags and the hematocrits were adjusted to 60% with PBS. The samples were spiked with 5×10^6 PFU/ml .phi.6 phage and 0.3 mg/mL sensitizer 8B. The contents of the bag were exposed to UVA light from top (3.6 mW/cm^2) and bottom (3.4 mW/cm^2) for 6 hours (151.2 J/cm^2). The samples were mixed continuously during UVA exposure on an orbital shaker. The final viral titre in the sample was determined by the plaque method. In vitro biochemical and biophysical properties of treated red cells were monitored for 7 days following the treatment.
(§2) Viral inactivation treatment was carried out in packed red cells (full
(§3) units, 60% Hct.) containing model virus (.phi.6 phage) and 8B sensitizer
(§4) (0.3 mg/mL) in a Sericon red cells freezing bag (altered). The bags were
(§5) irradiated from top (3.6 mW/cm^2) and bottom (3.4 mW/cm^2) in a
(§6) home made reactor for 6 hours (151.2 J/cm^2). The sample was mixed
(§7) continuously during UVA exposure on a orbital shaker.

.phi.6 phage [2] = test: Viral inactivation in single unit platelet concentrates (UVA); type: cell-based; details: light or radiation study, 10 min
Description: (§8) Single unit platelet concentrates were obtained 24 hours after collection from certified blood banks. The platelets were subjected to soft spin to remove residual RBC and about 6 logs of .phi.6 phage and sensitizer 8B were added in PBS solution to obtain 0.03 mg/ml final sensitizer concentration. The samples were transferred to Stericonpolyolefin bag (which transmits 60% of UVA light) and irradiated from top (3.6 mW/cm^2)and bottom (3.4 mW/cm^2) in a home made reactor for 10 min. The bags were continuously mixed on extended glass platform attached to orbital shaker. The viral inactivation values and in vitro properties of platelet concentrates were monitored for 2 days after the treatment.
(§9) Single units of platelet concentrates in Cryocyte ™ bag containing 0.03
(§10) mg/mL #8B sensitizer (Appendix I) were irradiated from top (3.6
(§11) mW/cm^2) and bottom (3.4 mW/cm^2) using UVA radiation in a home
(§12) made reactor for 10 min (4.2 J/cm^2). After the treatment platelet
(§13) concentrates were transferred into original platelet containers and stored
(§14) in a platelet incubator for indicated period of time.
(§15) Platelet viability assays were carried out immediately after treatment and
following 24 & 48 hours storage in a platelet incubator. The viral
(§16) reduction in treated samples was determined by the plaque assay. The
(§17) values are mean ±S.D (n = 3)

.phi.6 phage [3] = test: Comparison of viral inactivation efficiencies of brominated and non-brominated sensitizers in platelets (UVA); type: cell-based; details: 8B versus 8C, 0.1 mg/ml, UVA 3.3 mW/cm^2
Description: To test the viral inactivation efficiency of brominated sensitizers, platelet preparations (2 ml, PRP) were spiked with .phi.6 phage and brominated psoralen (8B) and non-brominated psoralen(8C) were added to obtain final sensitizer concentration of 0.1 mg/ml. The samples were exposed to UVA light in a home made reactor consisting of 4 UVA lamps for the indicated time periods. The petri dishes containing samples were mixed on an orbital shaker during UVA exposure. The UVA light intensity at the sample position was measured at 3.3 mW/cm^2. The residual viral titre after each time point was measured by plaque method. The viral reduction values are illustrated in FIG. 26.

salmonella mutants = test: Ames mutagenicity, overall; type: cell-based, Salmonella typhimurium; details: 0.6 mg/ml; words
Description: (§18) The standard Ames mutagenicity test using salmonella mutants was performed on brominated sensitizer 8B at 0.6 mg/ml.

red cells = test: Red cell in vitro properties after viral inactivation treatment (UVA); type: cell-based; set-up: MCV / MCH / MCHC: unit not given here; details: for % Hemichrome / % Met Hb. / % Oxy Hb. / MCH / MCHC / MCV / DI Max % control: Treated; for % Hemichrome / % Met Hb. / % Oxy Hb. / MCH / MCHC / MCV: UVA 6 hours; for DI Max % control: ektacytometry
Description: as §1
DI Max, Deformability index by ektacytometry
as §2, §3, §4, §5, §6, §7
Data was collected from 3 separate experiments and the values are mean

[4] = tested on: Salmonella typhimurium TA1537; test: Ames mutagenicity, plate incorporation assay; type: cell-based
Description: as §18

[5] = tested on: Salmonella typhimurium TA1538; test: Ames mutagenicity, plate incorporation assay; type: cell-based
Description: as §18

[6] = tested on: Salmonella typhimurium TA1535; test: Ames mutagenicity, plate incorporation assay; type: cell-based
Description: as §18

[7] = tested on: Salmonella typhimurium TA100; test: Ames mutagenicity, plate incorporation assay; type: cell-based
Description: as §18

[8] = tested on: Salmonella typhimurium TA98; test: Ames mutagenicity, plate incorporation assay; type: cell-based
Description: as §18

[9] = tested on: single unit platelet concentrates; test: Platelet in vitro properties in single unit platelet concentrates after UVA treatment; type: cell-based; set-up: ADP Agg. / Collagen / HSR: unit not given here; details: for ADP Agg. / Cell count / Collagen / HSR / Morphology / pH: Treated, 0.03 mg/mL, UVA 10 min
Description: as §8, §9, §10, §11, §12, §13, §14, §15, §16, §17

λ = test: Inactivation of viruses in human plasma and bovine serum with UV activation; type: cell-based, λ phage; details: light or radiation study, 0.5 h, Fetal bovine serum, 0.03 mg/ml, UVA 30 min (8.4 J/cm^2), read-out: Viral Reduction (log)
Description: Viral inactivation in FBS was carried out in 100 ml serum samples in 225 cm^2 tissue culture flask in the presence of sensitizer 8B (0.03 mg/ml). The sample was exposed to UVA light from top (3.6 mW/cm^2) and bottom (3.4 mW/cm^2) while continuously mixing on an orbital shaker for 30 min. (8.4 J/cm^2). Human plasma was irradiated in a Pyrex glass photolysis cell in the presence of sensitizer 8 (0.1 mg/ml) for 5 min. Inactivation of various bacteriophages were carried out using brominated psoralens in combination with UVA light. The results in Table 5 clearly indicate that 5-7 logs of viral reduction was obtained with various phage (enveloped and non-enveloped) in human plasma fractions and fetal bovine serum products.

cell damage = test: Cell damage by derivatives with free hydrogen atoms on the ammonium group; type: cell-based; details: words
platelets = type: cell-based
Description: The viral inactivation values and in vitro properties of platelets subjected to viral inactivation treatment using various derivatives of psoralen are summarized in Table 1.
2 mL PRP samples (plastic disposable petri dishes) containing 0.1 mg/mL
sensitizer were irradiated with UVA for 6 min. (1.19 J/cm^2). The
intensity of UVA radiation at sample position was measured at 3.3
mW/cm^2. The data was obtained from three separate experiments using
different platelet concentrates. Values are mean ± SD.

Compound: CC[N+](CC)(CC)CCCOc1c2occc2c(Br)c2ccc(=O)oc12 [Sensitizer #8B, 5-Bromo-8 (γ-Triethylaminopropyloxy) Psoralen Hydrochloride]
log reduction at 300 µg/mL (.phi.6 phage [1]; 6 h, read-out: viral reduction): > 6.6
log reduction at 300 µg/mL (.phi.6 phage [1]; Treated, Day 1, 0.3 mg/mL, UVA 6 hours (151.2 J/cm^2), read-out: Viral Reduction (log)): 6.6 ± 0.1
log reduction at 30 µg/mL (.phi.6 phage [2]; Treated, 0 Hour, 0.03 mg/mL, UVA 10 min (4.2 J/cm^2), n = 4, read-out: V.I): 5.3 ± 0.2
log reduction at 30 µg/mL (.phi.6 phage [2]; read-out: viral reduction): > 5.3
improvement in the level of viral inactivation (brominated versus non-brominated) (.phi.6 phage [3]): ≤ 400 fold
mutagenicity (salmonella mutants): non-mutagenic
in vitro biochemical and biophysical properties of red cells (red cells; Example 16 text, words): without any significant alterations
% Hemichrome (red cells; Day 1, 0.3 mg/mL): 1.9 ± 1.5%
% Met Hb. (red cells; Day 1, 0.3 mg/mL): 2.9 ± 1.5%
% Oxy Hb. (red cells; Day 1, 0.3 mg/mL): 95.2 ± 0.1%
MCH (red cells; Day 1, 0.3 mg/mL): 30.9 ± 0.1
MCHC (red cells; Day 1, 0.3 mg/mL): 34.9 ± 0.4
MCV (red cells; Day 1, 0.3 mg/mL): 88.8 ± 2.5
DI Max % control (red cells; Day 1, 0.3 mg/mL): 97.4 ± 3.6 % control
% Hemichrome (red cells; Day 2, 0.3 mg/mL): 0.6 ± 0.9%
% Met Hb. (red cells; Day 2, 0.3 mg/mL): 1.7 ± 1.7%
% Oxy Hb. (red cells; Day 2, 0.3 mg/mL): 97.7 ± 1.7%
MCH (red cells; Day 2, 0.3 mg/mL): 30.3 ± 0.4
MCHC (red cells; Day 2, 0.3 mg/mL): 33.8 ± 0.9
MCV (red cells; Day 2, 0.3 mg/mL): 89.8 ± 1.7
DI Max % control (red cells; Day 2, 0.3 mg/mL): 99.6 ± 3.8 % control
% Hemichrome (red cells; Day 7, 0.3 mg/mL): 0.2 ± 0.2%
% Met Hb. (red cells; Day 7, 0.3 mg/mL): 1.4 ± 1.2%
% Oxy Hb. (red cells; Day 7, 0.3 mg/mL): 98.5 ± 1.0%
MCH (red cells; Day 7, 0.3 mg/mL): 30.1 ± 0.8
MCHC (red cells; Day 7, 0.3 mg/mL): 33.6 ± 1.6
MCV (red cells; Day 7, 0.3 mg/mL): 89.8 ± 1.7
DI Max % control (red cells; Day 7, 0.3 mg/mL): 99.0 ± 5.9 % control
Number of Revertan Colonies ([4]; TA1537, with S-9, average of duplicate plates): 26
Number of Revertan Colonies ([4]; TA1537, without S-9, average of duplicate plates): 36
Number of Revertan Colonies ([5]; TA1538, with S-9, average of duplicate plates): 25
Number of Revertan Colonies ([5]; TA1538, without S-9, average of duplicate plates): 22
Number of Revertan Colonies ([6]; TA1535, with S-9, average of duplicate plates): 197
Number of Revertan Colonies ([6]; TA1535, without S-9, average of duplicate plates): 173
Number of Revertan Colonies ([7]; TA100, with S-9, average of duplicate plates): 245
Number of Revertan Colonies ([7]; TA100, without S-9, average of duplicate plates): 164
Number of Revertan Colonies ([8]; TA98, with S-9, average of duplicate plates): 83
Number of Revertan Colonies ([8]; TA98, without S-9, average of duplicate plates): 55
platelet in vitro properties ([9]; Example 15 text, words): excellent retention of platelet in vitro properties
ADP Agg. ([9]; 0 Hour): 43 ± 12
Cell count ([9]; 0 Hour): 474 ± 20
Collagen ([9]; 0 Hour): 72 ± 3
HSR ([9]; 0 Hour): 65 ± 8
Morphology ([9]; 0 Hour): 233 ± 17
pH ([9]; 0 Hour): 7.2 ± 0.1
ADP Agg. ([9]; 24 Hours): 34 ± 19
Cell count ([9]; 24 Hours): 499 ± 50
Collagen ([9]; 24 Hours): 65 ± 3
HSR ([9]; 24 Hours): 65 ± 6
Morphology ([9]; 24 Hours): 230 ± 19
pH ([9]; 24 Hours): 7.1 ± 0.2
Collagen ([9]; 43 Hours): 60 ± 4
pH ([9]; 43 Hours): 6.8 ± 0.1
HSR ([9]; 48 Hours): 70 ± 6
log reduction at 30 µg/mL (λ): 6.6

hypotonic shock response (HSR) and ADP aggregation response relative to the control (platelets): substantial reduction
Compound: Cc1oc2c(C)c3oc(=O)cc(C)c3cc2c1CN [AMT, 4'-aminomethyl-4,5',8-trimethylpsoralen]
cell damage (cell damage): unacceptable levels of cell damage
